In assay [1] the test system is adjuvant arthritis models in rats. Nature of the assay: Paw edema inhibitory action test using adjuvant arthritis models in rats. It counts as in vivo. The conditions noted are these: 504 h; Lewis rat, adjuvant-untreated (secondary inflammation) paw, day 21; 10 mg/kg/day oral once a day, day 0 to day 20; average of 8 rats per group; read-out: Paw edema inhibition rate (%). The procedure: A paw edema inhibitory action test of the compounds of the present invention was performed using an adjuvant arthritis model in rats, which is one of the widely-used methods of evaluating in vivo antiarthritis effects of drugs.
As one of the widely-used methods of evaluating antiarthritic effects of drugs, a paw edema inhibitory action test using adjuvant arthritis models in rats is known. Accordingly, a paw edema inhibitory action test of the compounds of the present invention was performed, the paw edema inhibition rate was calculated, and the antiarthritic effect of each of the compounds of the present invention was evaluated using the obtained rate as an index.
A 1% aqueous methyl cellulose solution was added to each test compound to suspend it, whereby a 2 mg/mL test compound suspension was prepared.
Liquid paraffin was added to Mycobacterium butyricum to suspend it, whereby 6 mg/mL adjuvant was prepared.
• 1) The adjuvant (0.1 mL) was injected subcutaneously into a left hind paw sole of each rat (male, 9 weeks of age, Lewis rat) to induce arthritis. • 2) From the adjuvant injection day (i.e. on day 0) to day 20, the test compound suspension (10 mg/kg/day) was orally administered once a day consecutively. • 3) On the adjuvant injection day, day 1, day 4, day 7, day 11, day 14, day 18 and day 21, each paw volume of both hind paws was measured with a plethysmometer. • 4) A test was performed in the same manner as in 1) to 3) except that the 1% aqueous methyl cellulose solution was used instead of the test compound suspension, and the result was used as a control. (Method of Evaluation)
Each paw edema inhibition rate of paw edema in an adjuvant-untreated paw (secondary inflammation paw) in each test compound administration group to paw edema in a secondary inflammation paw in a control group was calculated, and the antiarthritic effect of each of the compounds of the present invention was evaluated using the obtained rate as an index.
The paw edema rate was calculated according to the following calculation equation 1, and then the paw edema inhibition rate (the average of 8 rats per group), which was used as an index of the antiarthritic effect, was calculated according to the calculation equation 2. Paw edema rate (%)=(Paw volume after adjuvant treatment/paw volume before adjuvant treatment)×100 (Calculation Equation 1) Paw edema inhibition rate (%)=100−{(Sx−100)/(So−100)}×100 (Calculation Equation 2) So: Paw edema rate of control group Sx: Paw edema rate of test compound suspension administration group (Test Results and Discussion)

The subject of assay [2] is HUVEC (normal human umbilical vein endothelial cells). Nature of the assay: VEGF-induced HUVEC proliferation: cell proliferation inhibitory action test.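 Note: each well holds 100 µL cell suspension before compound addition.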 It counts as cell-based. To be noted: 72 h, 5 μL of 20 μg/mL test compound solution per well, WST-8 absorbance at 450 nm three days after VEGF addition, read-out: Cell proliferation inhibition rate (%). In outline:
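HUVECs in 0.5% FBS F12K on type I collagen were pretreated 1 h with compound (20 μg/mL solution in PBS from DMSO stock, 5 μL/well), then stimulated with VEGF (400 ng/mL solution). After 3 days at 37 °C, viability was read by WST-8 A450. Inhibition % was calculated against a 1.0% DMSO control, minus cell+medium blank.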
(Tetrazolium dyes change colour on reduction, which living cells bring about.)

Where a name gives a salt, the structure may show the parent alone.

On to `CC(=O)Nc1cc(CSc2ncccc2C(=O)Nc2ccc(Cl)cc2)ccn1` [Compound 4-10, 2-(2-Acetylaminopyridin-4-ylmethylthio)-N-(4-chlorophenyl)pyridine-3-carboxamide], for which the inhibition in vivo at 10 mg/kg/day in assay [1] worked out at 71%. For the same compound, the inhibition at 20 µg/mL (stock) in assay [2] was found to be 100%.

In the case of `CC(=O)Nc1cc(CSc2ncccc2C(=O)Nc2ccc(OC(F)(F)F)cc2)ccn1` [Compound 4-11, 2-(2-Acetylaminopyridin-4-ylmethylthio)-N-(4-trifluoromethoxyphenyl)pyridine-3-carboxamide], the inhibition in vivo at 10 mg/kg/day in assay [1] came out at 65%. Also, the inhibition at 20 µg/mL (stock) in assay [2] worked out at 93%.

Regarding `CC(=O)Nc1cc(CSc2ncccc2C(=O)Nc2cc(C)cc(C)c2)ccn1` [Compound 4-1, 2-(2-Acetylaminopyridin-4-ylmethylthio)-N-(3,5-dimethylphenyl)pyridine-3-carboxamide], in assay [1], the inhibition in vivo at 10 mg/kg/day is 90%. In addition, the inhibition at 20 µg/mL (stock) in assay [2] was 100%.

With `Nc1cc(CSc2ncccc2C(=O)Nc2ccc(OC(F)(F)F)cc2)ccn1` [Compound 3-10, 2-(2-Aminopyridin-4-ylmethylthio)-N-(4-trifluoromethoxyphenyl)pyridine-3-carboxamide], in assay [1], the inhibition in vivo at 10 mg/kg/day is 35%. For the same compound, the inhibition at 20 µg/mL (stock) in assay [2] turned out to be 97%.

With `CNC(=O)Nc1cc(CSc2ncccc2C(=O)Nc2cc(C)cc(C)c2)ccn1` [Compound 9-1, N-(3,5-Dimethylphenyl)-2-[2-(N′-methylureido)pyridin-4-ylmethylthio]pyridine-3-carboxamide], the inhibition in vivo at 10 mg/kg/day in assay [1] was found to be 55%. The inhibition at 20 µg/mL (stock) in assay [2] worked out at 100%.

Take `Cc1cc(C)cc(NC(=O)c2cccnc2SCc2ccnc(N)c2)c1` [Compound 3-1, 2-(2-Aminopyridin-4-ylmethylthio)-N-(3,5-dimethylphenyl)pyridine-3-carboxamide monohydrochloride]: the inhibition in vivo at 10 mg/kg/day in assay [1] stood at 48%. In assay [2], the inhibition at 20 µg/mL (stock) came out at 100%.

On to `CC(=O)OCC(=O)Nc1cc(CSc2ncccc2C(=O)Nc2cc(C)cc(C)c2)ccn1` [Compound 10-1, 2-(2-Acetoxyacetylaminopyridin-4-ylmethylthio)-N-(3,5-dimethylphenyl)pyridine-3-carboxamide], for which the inhibition in vivo at 10 mg/kg/day in assay [1] stood at 59%. In assay [2], the inhibition at 20 µg/mL (stock) was found to be 100%.

Regarding `CNc1cc(CSc2ncccc2C(=O)Nc2ccc(OC(F)(F)F)cc2)ccn1` [Compound 3-8, 2-(2-Methylaminopyridin-4-ylmethylthio)-N-(4-trifluoromethoxyphenyl)pyridine-3-carboxamide monohydrochloride], the inhibition in vivo at 10 mg/kg/day in assay [1] was determined as 30%. Moreover, in assay [2], the inhibition at 20 µg/mL (stock) turned out to be 100%.

With `O=C(CO)Nc1cc(CSc2ncccc2C(=O)Nc2ccc(OC(F)(F)F)cc2)ccn1` [Compound 12-1, 2-(2-Hydroxyacetylaminopyridin-4-ylmethylthio)-N-(4-trifluoromethoxyphenyl)pyridine-3-carboxamide], the inhibition in vivo at 10 mg/kg/day in assay [1] came to 48%. The inhibition at 20 µg/mL (stock) in assay [2] turned out to be 78%.

The values are drawn from patent US7544703B2, “Cyclic compound having 4-pyridylalkylthio group having substituted or unsubstituted amino group introduced therein” (Santen Pharmaceutical Co., Ltd., priority 2004, dated 2009).
